The values that follow come from patent US20080027075A1, “Quaternary Amino-Function Chalcones” (Lica Pharmaceuticals A/S, priority 2003, published 2008).

The subject of assay [1] is panel of 10 different non-fastidious bacteria growing aerobically. Put plainly: Activity against non-fastidious bacteria (panel, discussed in words). It counts as cell-based.
Assay [2] deals with Streptococcus pneumoniae #998 (clinical isolate). Put plainly: MIC determination in broth microdilution assay. It counts as cell-based. As to conditions: F: Streptococcus pneumoniae #998 clinical isolate; MH-broth microdilution. In general terms: Dilution methods test growth across graded concentrations, often in twofold steps.
Assay [3] concerns Staphylococcus aureus ATCC33591 (resistant to methicillin). Put plainly: MIC determination in broth microdilution assay. The assay is classed as cell-based. As to conditions: B: Staphylococcus aureus ATCC33591 (resistant to methicillin); MH-broth microdilution.
Assay [4] concerns Staphylococcus intermedius #2357 (clinical isolate from the Copenhagen area). Put plainly: MIC determination in broth microdilution assay. As to conditions: C: Staphylococcus intermedius #2357 clinical isolate; MH-broth microdilution. The assay is classed as cell-based.
Assay [5] has as its system Enterococcus faecium #17501 (vancomycin-resistant clinical isolate). Put plainly: MIC determination in broth microdilution assay. It counts as cell-based. Conditions: E: Enterococcus faecium #17501 vancomycin-resistant clinical isolate; MH-broth microdilution.
Assay [6] relates to Enterococcus faecalis ATCC29212. Kind of assay: MIC determination in broth microdilution assay. The assay is classed as cell-based. Conditions: D: Enterococcus faecalis ATCC29212; MH-broth microdilution.
Assay [7] deals with Eschericia coli ATCC25922. Put plainly: MIC determination in broth microdilution assay. The assay is classed as cell-based. Conditions: for MIC: G: Eschericia coli ATCC25922, MH-broth microdilution; for activity against Eschericia coli (in words): Gram-negative prototype, Table 1.
Assay [8] relates to Staphylococcus aureus ATCC29213. Kind of assay: MIC determination in broth microdilution assay. Conditions: A: Staphylococcus aureus ATCC29213; MH-broth microdilution. The assay is classed as cell-based.
Another assay deals with S. aureus E2371. Put plainly: Killing curve determination (time-kill curve). The assay is classed as cell-based, Staphylococcus aureus. As to conditions: for bactericidal activity (CFU counts per ml in time-kill curve): concentrations above the MIC; for dependence of the bactericidal action: time-kill curve.
A further assay relates to S. aureus ATCC29213. Kind of assay: Killing curve determination (time-kill curve). It counts as cell-based, Staphylococcus aureus.

The structures appear in SMILES notation. Values after ≈ are worked out from the molar mass of the structure shown. “Also recorded” adds a separate entry of the source.

On to `COc1ccc(C(=O)/C=C/c2ccccc2)cc1` [4′-MC, 4′methoxy chalcone, reference compound], for which the “antibacterial effect (in words)” value in assay [1] (whole panel of non-fastidious bacteria) is “no antibacterial effect at all”.

As for `Cc1cc(C)cc(-c2ccc(OCC[N+](C)(C)C)c(/C=C/C(=O)c3ccc(N)cc3)c2)c1` [D-002, (2-{3-[3-(4-Amino-phenyl)-3-oxo-propenyl]-3′,5′-dimethyl-biphenyl-4-yloxy}-ethyl)-trimethyl-ammonium; iodide], the MIC in assay [2] came to 18.8 µM; in assay [3], 9.4 µM; in [4], 9.4 µM; in [5] it was 18.8 µM; in assay [6], 18.8 µM; in assay [7] it was 75 µM. Also, in assay [8], inhibition of growth (MIC) required 9.4 µM.

With `Cc1cc(C)cc(-c2ccc(OCC[N+](C)(C)C)c(/C=C/C(=O)c3ccccc3N)c2)c1.[I-]` [D-003, (2-{3-[3-(2-Amino-phenyl)-3-oxo-propenyl]-3′,5′-dimethyl-biphenyl-4-yloxy}-ethyl)-trimethyl-ammonium; iodide], the “bactericidal activity (CFU counts per ml in time-kill curve)” value in the assay with S. aureus E2371 is recorded as “bactericidal”. For the same compound, in the assay on S. aureus E2371, the “dependence of the bactericidal action” value is “primarily dependent on the concentration of the test compound; also recorded: predominantly dependent on the concentration of the compound”. The MIC turned out to be 18.8 µM in assay [2]; 4.7 µM in [3]; 2.4 µM in [4]; 4.7 µM in [5]; 4.7 µM in [6]; 18.8 µM in assay [7]. For the same compound, the MIC in [8] was found to be 4.7 µM. For the same compound, the “activity against Eschericia coli (in words)” value in assay [7] is on record as “high activity”.

For the compound `COc1ccc(C(=O)/C=C/c2cc(-c3ccccc3OC)ccc2N2CC[N+](C)(C)CC2)c(F)c1` [D-004, 4-{3-[3-(2-Fluoro-4-methoxy-phenyl)-3-oxo-propenyl]-2′-methoxy-biphenyl-4-yl}-1,1-dimethyl-piperazin-1-ium], the MIC was 37.5 µM in [2]; 9.4 µM in [3]; 9.4 µM in [4]; 18.8 µM in assay [5]; 18.8 µM in assay [6]; 75 µM in assay [7]. Besides, the MIC in assay [8] is 18.8 µM.

In the case of `C[N+](C)(C)CCOc1ccc(-c2ccccc2)cc1/C=C/C(=O)c1cccc(C[N+](C)(C)C)c1.[I-].[I-]` [D-006], the “bactericidal activity (CFU counts per ml in time-kill curve)” value in the assay with S. aureus E2371 is “bactericidal”. Besides, the “dependence of the bactericidal action” value with S. aureus E2371 is listed as “primarily dependent on the concentration of the test compound”. In addition, the minimal inhibitory concentration (MIC) in assay [2] stood at 150 µM; in assay [3] it was 18.8 µM; in [4] it was 18.8 µM; in assay [5], 37.5 µM; in [6], 75 µM; in assay [8], 18.8 µM.

On to `COc1ccc(C(=O)/C=C/c2cc(-c3cc(C)cc(C)c3)ccc2OCC[N+](C)(C)C)c(C[N+](C)(C)C)c1.[I-].[I-]` [D-007], for which, in the assay with S. aureus ATCC29213 (concentrations above the MIC), the “bactericidal activity (CFU counts per ml in time-kill curve)” value is given as “bactericidal”. For the same compound, the “dependence of the bactericidal action” value in the assay with S. aureus ATCC29213 (time-kill curve) is on record as “primarily dependent on incubation time; also recorded: predominantly dependent on the time of incubation with the compound”. The MIC in assay [2] was found to be 75 µM; in assay [3] it was 18.8 µM; in [4], 9.4 µM; in assay [5], 75 µM; in assay [6], 150 µM; in assay [7], 75 µM. This compound gave an MIC in [8] of 18.8 µM.

On to `C=CC(C)(C)c1cc(/C=C/C(=O)c2ccc(O)cc2)c(OC)cc1O` [LicA, Licochalcone A], for which the MIC in [2] stood at 75 µM (≈ 25.4 µg/mL); in assay [3], 37.5 µM (≈ 12.7 µg/mL); in assay [4] it was 37.5 µM (≈ 12.7 µg/mL); in assay [5], 37.5 µM (≈ 12.7 µg/mL); in [6], 37.5 µM (≈ 12.7 µg/mL); in assay [8], 37.5 µM (≈ 12.7 µg/mL). Further, the “activity against pathogenic Gram-positive bacteria (in words)” value in assay [1] (Gram-positive non-fastidious bacteria, comparison with Licochalcone A) is reported as “moderate bactericidal activity”. The “activity against Eschericia coli (in words)” value in assay [7] was “only modest or no activity”.

In the case of `COc1ccc(C(=O)/C=C/c2cc(-c3cc(C)cc(C)c3)ccc2OCCN(C)C)c(Cl)c1` [SM007, (E)-1-(2-Chloro-4-methoxy-phenyl)-3-[4-(2-dimethylamino-ethoxy)-3′,5′-dimethyl-biphenyl-3-yl]-propenone], the MIC in assay [2] is 18.8 µM (≈ 8.72 µg/mL); in assay [3], 4.7 µM (≈ 2.18 µg/mL); in [4], 4.7 µM (≈ 2.18 µg/mL); in assay [5] it was 4.7 µM (≈ 2.18 µg/mL); in [6], 9.4 µM (≈ 4.36 µg/mL); in [8] it was 4.7 µM (≈ 2.18 µg/mL).

On to `Cc1cc(C)cc(-c2ccc(OCCN(C)C)c(/C=C/C(=O)c3ccc(N)cc3)c2)c1` [SM008, (E)-1-(4-Amino-phenyl)-3-[4-(2-dimethylamino-ethoxy)-3′,5′-dimethyl-biphenyl-3-yl]-propenone], for which the MIC stood at 18.8 µM (≈ 7.79 µg/mL) in [2]; 9.4 µM (≈ 3.9 µg/mL) in assay [3]; 9.4 µM (≈ 3.9 µg/mL) in assay [4]; 9.4 µM (≈ 3.9 µg/mL) in assay [5]; 18.8 µM (≈ 7.79 µg/mL) in assay [6]; 9.4 µM (≈ 3.9 µg/mL) in [8].

Regarding `Cc1cc(C)cc(-c2ccc(OCCN(C)C)c(/C=C/C(=O)c3ccccc3N)c2)c1` [SM009, (E)-1-(2-Amino-phenyl)-3-[4-(2-dimethylamino-ethoxy)-3′,5′-dimethyl-biphenyl-3-yl]-propenone], the MIC turned out to be 18.8 µM (≈ 7.79 µg/mL) in assay [2]; 4.7 µM (≈ 1.95 µg/mL) in assay [3]; 4.7 µM (≈ 1.95 µg/mL) in [4]; 4.7 µM (≈ 1.95 µg/mL) in assay [5]; 9.4 µM (≈ 3.9 µg/mL) in [6]; 4.7 µM (≈ 1.95 µg/mL) in assay [8].

On to `COc1ccc(C(=O)/C=C/c2cc(-c3ccccc3OC)ccc2N2CCN(C)CC2)c(F)c1` [SM010, (E)-1-(2-Fluoro-4-methoxy-phenyl)-3-[2′-methoxy-4-(4-methyl-piperazin-1-yl)-biphenyl-3-yl]-propenone], for which the MIC worked out at 37.5 µM (≈ 17.3 µg/mL) in [2]; 9.4 µM (≈ 4.33 µg/mL) in assay [3]; 9.4 µM (≈ 4.33 µg/mL) in assay [4]; 9.4 µM (≈ 4.33 µg/mL) in assay [5]; 18.8 µM (≈ 8.66 µg/mL) in [6]; 4.7 µM (≈ 2.16 µg/mL) in assay [8].

Take `CCCCN(CCCC)c1ccc(/C=C/C(=O)c2cccc(CN(C)C)c2)cc1` [SM011, (E)-3-(4-Dibutylamino-phenyl)-1-(3-dimethylaminomethyl-phenyl)-propenone]: the MIC amounted to 18.8 µM (≈ 7.38 µg/mL) in assay [2]; 9.4 µM (≈ 3.69 µg/mL) in assay [3]; 9.4 µM (≈ 3.69 µg/mL) in [4]; 9.4 µM (≈ 3.69 µg/mL) in [5]; 9.4 µM (≈ 3.69 µg/mL) in [6]; 9.4 µM (≈ 3.69 µg/mL) in assay [8].

As for `CN(C)CCOc1ccc(-c2ccccc2)cc1/C=C/C(=O)c1cccc(CN(C)C)c1` [SM012, (E)-3-[4-(2-Dimethylamino-ethoxy)-biphenyl-3-yl]-1-(3-dimethylaminomethyl-phenyl)-propenone], the MIC in assay [2] is 18.8 µM (≈ 8.06 µg/mL); in [3], 18.8 µM (≈ 8.06 µg/mL); in assay [4] it was 18.8 µM (≈ 8.06 µg/mL); in [5], 18.8 µM (≈ 8.06 µg/mL); in assay [6] it was 18.8 µM (≈ 8.06 µg/mL); in assay [7], 37.5 µM (≈ 16.1 µg/mL). The MIC in [8] was 18.8 µM (≈ 8.06 µg/mL).

`COc1ccc(C(=O)/C=C/c2cc(-c3cc(C)cc(C)c3)ccc2OCCN(C)C)c(CN(C)C)c1` [SM013, (E)-3-[4-(2-Dimethylamino-ethoxy)-3′,5′-dimethyl-biphenyl-3-yl]-1-(2-dimethylaminomethyl-4-methoxy-phenyl)-propenone]: the MIC worked out at 4.7 µM (≈ 2.29 µg/mL) in assay [2]; 9.4 µM (≈ 4.57 µg/mL) in assay [3]; 18.8 µM (≈ 9.15 µg/mL) in assay [4]; 4.7 µM (≈ 2.29 µg/mL) in assay [5]; 4.7 µM (≈ 2.29 µg/mL) in assay [6]; 75 µM (≈ 36.5 µg/mL) in [7]. In [8], this compound had an MIC of 4.7 µM (≈ 2.29 µg/mL).

Broadly, the MIC is the lowest concentration that inhibits growth of the organism.
